In patent publication US12697376B2, “Cationic lipid compounds” (Guangzhou Anobri Pharmaceutical Co. Ltd., priority 2021, dated 2026):

Legend:
[1] = system: luciferase expression in the liver; assay: In vivo luciferase mRNA expression in liver after tail vein injection of FLuc mRNA lipid nanoparticles; parameters: species or system mice; details: liver 5 hours after administration, LNP 50% cationic lipid/10% DSPC/38% cholesterol/2% PEG-DMG; for Liver Luc @ 0.3 mg/kg dose: 0.3 mg mRNA/kg; for Liver Luc @ 1.0 mg/kg dose: 1.0 mg mRNA/kg
Method: (§1) Cationic lipids, DSPC, cholesterol, and PEG-lipids were dissolved in ethanol in molar ratios of 50:10:38:2 or 48:10:40:2. Lipid nanoparticles (LNPs) were prepared in a ratio of total lipid to mRNA by weight of about 10:1 to 30:1. Briefly, mRNA was diluted to 0.15 mg/ml in 10 to 50 ml of citrate buffer (pH=4). Using a syringe pump, an ethanolic solution of lipids was mixed with an aqueous mRNA solution in a ratio of approximately 1:5 to 1:3 by volume at a total flow rate of over 10 ml/min. Ethanol was then removed and the external buffer was replaced by dialysis-class PBS. Finally, the lipid nanoparticles were filtered through a sterile filter with a pore size of 0.2 um. The particle size of the lipid nanoparticles was approximately 65-105 nm in diameter and, in some cases, approximately 75-100 nm in diameter, determined by quasi-elastic light scattering using Malvern Zetasizer Nano ZS.
According to the guidelines set by the State Scientific and Technological Commission of The People's Republic of China, female C57BL/6 mice aged 6-8 weeks and CD-1 mice aged 8-10 weeks were used to perform the study. Various doses of mRNA lipid nanoparticles were administered by intravenous injection and the animals were euthanized at specific time points (e.g., 5 hours) post-administration. The liver and spleen were collected, weighed, immediately frozen in liquid nitrogen, and stored at −80° C. until being used for analysis.
For the liver, approximately 50 mg of liver tissue was cut and placed in 2 mL FastPrep tubes (MP Biomedicals, Solon OH) for analysis. ¼″ ceramic beads (MP Biomedicals) and 500 μL of room temperature Glo Lysis Buffer-GLB (Promega, Madison WI) were then added to each tube. The liver tissue was then homogenized for 15 seconds at a speed of 2×6.0 m/s using a FastPrep24 instrument (MP Biomedicals). The homogenates were incubated at room temperature for 5 minutes, then diluted with GLB in a ratio of 1:4, and finally evaluated using the SteadyGlo luciferase assay system (Promega). Specifically, 50 μL of diluted tissue homogenate was mixed with 50 μL of SteadyGlo substrate. The mixture was shaken for 10 seconds, then incubated at room temperature for 5 minutes, and subsequently quantified using a SpectraMAX_L chemiluminescent plate reader (Meigu Molecular Instrument (Shanghai) Co., Ltd.). The amount of protein was measured by using the BCA Protein Quantitation Kit (Shanghai Colorless Medical Technology Co., Ltd.). Relative luminescence units (RLU) were normalized to the total ug of the measured protein. To convert RLU into μg luciferase, a standard curve was generated using QuantiLum recombinant luciferase (Promega).
FLuc mRNA (L-6107) from Trilink Biotechnologies, which was originally isolated from fireflies (Photinus pyralis), will express luciferase protein. Fluc is commonly used in mammalian cell cultures to measure gene expression and cell viability. It emits biological light in the presence of the substrate luciferin. This capped and polyadenylated mRNA was completely replaced by 5-methylcytidine and pseudouridine.
For comparison purposes, these lipids were also used to formulate lipid nanoparticles containing FLuc mRNA (L-6107) using an ordered mixing method, as described in Example 10. Lipid nanoparticles were formulated with the following molar ratio: 50% cationic lipid/10% distearylphosphatidylcholine (DSPC)/38% cholesterol/2% PEG lipid (“PEG-DMG”, i.e., (1-(monomethoxy-polyethylene glycol)-2,3-dimyristoylglycerol, average PEG molecular weight 2000). As described in Example 10, relative activity was determined by measuring luciferase expression in the liver 5 hours after administration via tail vein injection. The activity was compared at doses of 0.3 and 1.0 mg mRNA/kg and expressed as ng luciferase/g liver measured 5 hours after administration as described in Example 10.

[2] = Determination of the pKa of the cationic lipid in lipid nanoparticles by TNS fluorescence; assay type: physicochemical; details: probe 2-(p-toluidine)-6-naphthalenesulfonic acid (TNS), 1 uM final, cationic lipid in LNP (cationic lipid/DSPC/cholesterol/PEG lipid 50/10/38/2 mol %), pH of half-maximal fluorescence
Method: as §1
The pKa of the formulated cationic lipid correlates with the effectiveness of the LNP for nucleic acid delivery. The preferred pKa range is from 5 to 7. The pKa of each cationic lipid was determined in lipid nanoparticles using an analysis based on the fluorescence of 2-(p-toluidine)-6-naphthalenesulfonic acid (TNS). Lipid nanoparticles containing cationic lipids/DSPC/cholesterol/PEG lipids (50/10/38/2 mol %) at a concentration of 0.4 mM total lipid in PBS were prepared using an ordered method as described in Example 10. TNS was prepared as a 100 μM stock solution in distilled water. The vesicles were diluted to contain 24 uM lipid in a 2 mL buffer solution containing 10 mM HEPES, 10 mM MES, 10 mM acetic acid, and 130 mM NaCl, pH 2.5-11. Aliquots of 100 μM TNS stock solution were added to bring the final concentration to 1 uM. After vortex mixing, fluorescence intensity was measured in an SLM Aminco Series 2 luminescence spectrophotometer at room temperature using excitation and emission wavelengths of 321 nm and 445 nm. Fluorescence data were analyzed using a s-shaped curve fitting and pKa was determined by measuring the pH that produced half-maximal fluorescence intensity.

Structure (SMILES)	pKa [2]	Liver Luc @ 0.3 mg/kg dose [1]	Liver Luc @ 1.0 mg/kg dose [1]
CCCCCCCCC(C)(CCCCCC)C(=O)OCCCCCCN(CCCCO)CCCCCCOC(=O)C(CCC)(CCCCCC)CCCCCCCC (stereo not drawn) [Compound 6]	6.13	1628 ± 432 ng luciferase/g liver	11753 ± 2598 ng luciferase/g liver
CCCCCCCCC(CCCCCC)C(=O)OCCCCCCN(CCCCO)CCCCCCOC(=O)C(C)(CCCCCC)CCCCCCCC (stereo not drawn) [Compound 1]	6.25	1424 ± 265 ng luciferase/g liver	10318 ± 1304 ng luciferase/g liver
CCCCCCCCC(C)(CCCCCC)C(=O)OCCCCCCN(CCCCO)CCCCCCOC(=O)C(CC)(CCCCCC)CCCCCCCC (stereo not drawn) [Compound 5]	5.89	1424 ± 289 ng luciferase/g liver	10372 ± 2096 ng luciferase/g liver
CCCCCCCCC(CCCCCC)C(=O)OCCCCCCN(CCCCO)CCCCCCOC(=O)C(CC)(CCCCCC)CCCCCCCC (stereo not drawn) [Compound 2]	5.91	1469 ± 294 ng luciferase/g liver	10671 ± 1912 ng luciferase/g liver
CCCCCCCCC(C)(CCCCCC)C(=O)OCCCCCCN(CCCCO)CCCCCCOC(=O)C(C)(CCCCCC)CCCCCCCC (stereo not drawn) [Compound 4]	6.12	1179 ± 362 ng luciferase/g liver	8630 ± 824 ng luciferase/g liver
CCCCCCCCC(CCCCCC)C(=O)OCCCCCCN(CCCCO)CCCCCCOC(=O)C(CCC)(CCCCCC)CCCCCCCC (stereo not drawn) [Compound 3]	6.22	961 ± 469 ng luciferase/g liver	6917 ± 642 ng luciferase/g liver

Continued, in another order:

pKa [2]	Structure (SMILES)	Liver Luc @ 0.3 mg/kg dose [1]	Liver Luc @ 1.0 mg/kg dose [1]
5.98	CCCCCCCCC(CC)(CCCCCC)C(=O)OCCCCCCN(CCCCO)CCCCCCOC(=O)C(CCC)(CCCCCC)CCCCCCCC (stereo not drawn) [Compound 8]	985 ± 625 ng luciferase/g liver	7188 ± 942 ng luciferase/g liver
6.05	CCCCCCCCC(CCC)(CCCCCC)C(=O)OCCCCCCN(CCCCO)CCCCCCOC(=O)C(CCC)(CCCCCC)CCCCCCCC (stereo not drawn) [Compound 9]	1138 ± 265 ng luciferase/g liver	8443 ± 1045 ng luciferase/g liver
6.08	CCCCCCCCC(CC)(CCCCCC)C(=O)OCCCCCCN(CCCCO)CCCCCCOC(=O)C(CC)(CCCCCC)CCCCCCCC (stereo not drawn) [Compound 7]	1218 ± 359 ng luciferase/g liver	8914 ± 1487 ng luciferase/g liver
